In assay [1] the test system is Hs68 cells. The assay can be described thus: Cell proliferation assay (MTS), Hs68 (CDK4/6 dependent) cells. The assay is classed as cell-based. The note with it: Homo sapiens, Hs68 (CDK4/6 dependent) cell proliferation inhibition, 120 h incubation, absorbance 490 nm. The source says: (§1) MTS testing kit was purchased from Promega (Madison, Wis., USA). The RPMI-1640, DMEM, Fetal bovine serum and Penicillin-Streptomycin were purchased from BI (Biological Industries, Beit Haemek, Israel). Dimethyl sulfoxide (DMSO) was purchased from Sigma (St. Louis, Mo., USA).
(§2) To investigate whether a compound is able to inhibit the activity of CDK2/4/6 in cells, we developed a mechanism-based assay using HCC1806 (CDK4/6 independent) and Hs68 (CDK4/6 dependent) cell lines. In this assay, inhibition of CDK2/4/6 was detected by the cell proliferation inhibition of HCC1806 and Hs68 cells. HCC806 and HS68 cells cultured in PRMI-1640 and DMEM supplemented with 10% fetal bovine serum respectively to 40-80% confluence were collected and plated into 96-well plates at desired cell density of 5×10^3/mL. Plates were incubated at 37° C., with 5% CO2 for 24 h. Compounds were serially diluted and added to the plates with the final concentrations as 10000, 3333.3, 1111.1, 370.4, 123.5, 41.2, 13.7, 4.6 and 1.5 nM. Plates were incubated at 37° C., with 5% CO2 for 120 h. A mixture of 20 μl MTS/100 μl medium were added to each well and the plates were incubated at 37° C., with 5% CO2 for exactly 2 h. The absorbance was measured by a microplate reader at 490 nm. IC50 was calculated using GraphPad Prism 5.0 software.

In assay [2] the test system is HCC1806 cells. Description: Cell proliferation assay (MTS), HCC1806 (CDK4/6 independent) cells. It counts as cell-based. The note with it: Homo sapiens, HCC1806 (CDK4/6 independent) cell proliferation inhibition, 120 h incubation, absorbance 490 nm.
Excerpt: as §1, §2

Consider twelve molecules from patent US20230135215A1, “COMPOUNDS AS CDK2/4/6 INHIBITORS” (Fochon Biosciences, Ltd., priority 2020, published 2023).

For `CS(=O)(=O)N1CCC(Nc2ncc3cc(Cl)c(=O)n(C4CCCC45CC5)c3n2)CC1` (stereo not drawn) [Example 7, 6-Chloro-2-((1-(methylsulfonyl)piperidin-4-yl)amino)-8-(spiro[2,4]heptan-4-yl)pyrido[2,3-d]pyrimidin-7(8H)-one], the IC50 (usually the concentration at which inhibition is half-maximal) in assay [1] was 233 nM; in assay [2] it was 308 nM.

Regarding `CNS(=O)(=O)N1CCC(Nc2ncc3ccc(=O)n([C@H]4CCCC45CC5)c3n2)CC1` [Example 31, (S)-N-methyl-4-((7-oxo-8-(spiro[2.4]heptan-4-yl)-7,8-dihydropyrido[2,3-d]pyrimidin-2-yl)amino)piperidine-1-sulfonamide], the IC50 is 418 nM in assay [1] and 118 nM in assay [2].

As to `CS(=O)(=O)N1CCC(Nc2ncc3cc(C(F)F)c(=O)n(C4CCCC45CC5)c3n2)CC1` (stereo not drawn) [Example 18, 6-(difluoromethyl)-2-((1-(methylsulfonyl)piperidin-4-yl)amino)-8-(spiro[2.4]heptan-4-yl)pyrido[2,3-d]pyrimidin-7(8H)-one], in assay [2], half-maximal inhibition (IC50) required 233 nM. That is a sub-micromolar value.

With `CS(=O)(=O)N1CCC(Nc2ncc3cc(C(F)F)c(=O)n([C@@H]4CCCC45CC5)c3n2)CC1` [Example 19, (R)-6-(difluoromethyl)-2-((1-(methyl-sulfonyl)piperidin-4-yl)amino)-8-(spiro[2.4]heptan-4-yl)pyrido[2,3-d]pyrimidin-7(8H)-one], the IC50 in assay [2] was found to be 139 nM.

On to `CS(=O)(=O)N1CCC(Nc2ncc3ccc(=O)n([C@H]4CCCC45CC5)c3n2)CC1` [Example 24, (S)-2-((1-(methylsulfonyl)piperidin-4-yl)amino)-8-(spiro[2.4]heptan-4-yl)pyrido[2,3-d]pyrimidin-7(8H)-one], for which the IC50 in assay [1] came out at 437 nM; in assay [2] it was 78 nM.

`CS(=O)(=O)N1CCC(Nc2ncc3ccc(=O)n([C@@H]4CCCC45CC5)c3n2)CC1` [Example 23, (R)-2-((1-(methylsulfonyl)piperidin-4-yl)amino)-8-(spiro[2.4]heptan-4-yl)pyrido[2,3-d]pyrimidin-7(8H)-one]: the figures for the IC50 in assay [1] and in assay [2] were 489 nM and 150 nM, respectively.

As to `CS(=O)(=O)N1CCC(Nc2ncc3ccc(=O)n(C4CCCC45CC5)c3n2)CC1` (stereo not drawn) [Example 1, 2-((1-(Methylsulfonyl)piperidin-4-yl)amino)-8-(spiro[2,4]heptan-4-yl)pyrido[2,3-d]pyrimidin-7(8H)-one], the IC50 was found to be 318 nM in assay [1] and 379 nM in assay [2].

`Cc1cc2cnc(NC3CCN(S(C)(=O)=O)CC3)nc2n(C2CCCC23CC3)c1=O` (stereo not drawn) [Example 2, 6-Methyl-2-((1-(methylsulfonyl)piperidin-4-yl)amino)-8-(spiro[2,4]heptan-4-yl)pyrido[2,3-d]pyrimidin-7(8H)-one]: inhibition in assay [1] was half-maximal at 322 nM (IC50).

For the molecule `CS(=O)(=O)N1CCC(Nc2ncc3cc(C(F)F)c(=O)n([C@H]4CCCC45CC5)c3n2)CC1` [Example 20, (S)-6-(difluoromethyl)-2-((1-(methylsulfonyl)piperidin-4-yl)amino)-8-(spiro[2.4]heptan-4-yl)pyrido[2,3-d]pyrimidin-7(8H)-one], in assay [2], inhibition was half-maximal at 211 nM (IC50).

In assay [2], `CS(=O)(=O)N1CCC(Nc2ncc3cc(F)c(=O)n(C4CCCC45CC5)c3n2)CC1` (stereo not drawn) [Example 22, 6-fluoro-2-((1-(methylsulfonyl)piperidin-4-yl)amino)-8-(spiro[2.4]heptan-4-yl) pyrido[2,3-d]pyrimidin-7(8H)-one] returned an IC50 of 318 nM.

`NS(=O)(=O)N1CCC(Nc2ncc3ccc(=O)n([C@H]4CCCC45CC5)c3n2)CC1` [Example 30, (S)-4-((7-oxo-8-(spiro[2.4]heptan-4-yl)-7,8-dihydropyrido[2,3-d]pyrimidin-2-yl)amino)piperidine-1-sulfonamide]: half-maximal inhibition in assay [2] (IC50) required 409 nM.

Consider `CS(=O)(=O)N1CCC(Nc2ncc3cc(Br)c(=O)n(C4CCCC45CC5)c3n2)CC1` (stereo not drawn) [Example 8, 6-Bromo-2-((1-(methylsulfonyl)piperidin-4-yl)amino)-8-(spiro[2,4]heptan-4-yl)pyrido[2,3-d]pyrimidin-7(8H)-one], for which the 50% inhibitory concentration (IC50) in assay [1] was determined as 105 nM; in assay [2] it was 305 nM.
